In ChEMBL document CHEMBL4028802, “DILIrank: the largest reference drug list ranked by the risk for developing drug-induced liver injury in humans” (Drug Discov Today, 2016) one finds DILI_Concern and DILI_severity_class data, which are given here for 36 compounds.

The species entered for data set [1] is Homo sapiens. The data set can be described thus: Liver toxicity in human assessed as induction of drug-induced liver injury by measuring verified drug-induced liver injury concern status.
For data set [2], the species on record is Homo sapiens. The data set can be described thus: Liver toxicity in human assessed as induction of drug-induced liver injury by measuring severity class index.
For DILI severity class in this document: key of the grades not given here.

With `CC(C)Cc1ccc(C(C)C(=O)O)cc1` (configuration not stated) [IBUPROFEN], the DILI_Concern entry in the data set listed under Homo sapiens [1] is “Less-Dili-Concern”. For the same compound, the DILI_severity_class in the data set listed under Homo sapiens [2] turned out to be 3.
The corresponding values for `CCCCCCCN(CC)CCCC(O)c1ccc(NS(C)(=O)=O)cc1` (configuration not stated) [IBUTILIDE] are “No-Dili-Concern” and 0.
As for `CC(=O)[C@]1(O)Cc2c(O)c3c(c(O)c2[C@@H](O[C@H]2C[C@H](N)[C@H](O)[C@H](C)O2)C1)C(=O)c1ccccc1C3=O` [IDARUBICIN], the DILI_Concern result in the data set filed under Homo sapiens [1] is given as “Ambiguous-Dili-Concern”. For the same compound, the DILI_severity_class in the data set filed under Homo sapiens [2] is reported as 3.
Regarding `O=P1(NCCCl)OCCCN1CCCl` (configuration not stated) [IFOSFAMIDE], the DILI_Concern result in the data set filed under Homo sapiens [1] is “Less-Dili-Concern”. Further, in the data set filed under Homo sapiens [2], the DILI_severity_class is listed as 4.
Taken in the same sequence, the figures for `COc1cc(C(C)=O)ccc1OCCCN1CCC(c2noc3cc(F)ccc23)CC1` [ILOPERIDONE] were “Ambiguous-Dili-Concern” and 2.
As to `Cc1ccc(NC(=O)c2ccc(CN3CCN(C)CC3)cc2)cc1Nc1nccc(-c2cccnc2)n1` [IMATINIB], the DILI_Concern result in the data set filed under Homo sapiens [1] is “Most-Dili-Concern”. Also, in the data set listed under Homo sapiens [2], the DILI_severity_class was found to be 8.
Taken in the same sequence, the figures for `Nc1cc(-c2ccncc2)c[nH]c1=O` [INAMRINONE] were “Ambiguous-Dili-Concern” and 5.
The corresponding values for `CC1Cc2ccccc2N1NC(=O)c1ccc(Cl)c(S(N)(=O)=O)c1` (configuration not stated) [INDAPAMIDE] are “Ambiguous-Dili-Concern” and 5.
Taken in the same sequence, the figures for `CC1(C)C(/C=C/C=C/C=C/C=C2/N(CCCCS(=O)(=O)[O-])c3ccc4ccccc4c3C2(C)C)=[N+](CCCCS(=O)(=O)[O-])c2ccc3ccccc3c21.[Na+]` [INDOCYANINE GREEN] were “No-Dili-Concern” and 0.
As to `COc1ccc2c(c1)c(CC(=O)O)c(C)n2C(=O)c1ccc(Cl)cc1` [INDOMETHACIN], in the data set filed under Homo sapiens [1], the DILI_Concern result is given as “Most-Dili-Concern”. In the data set listed under Homo sapiens [2], the DILI_severity_class was determined as 8.
Taken in the same sequence, the figures for `CNC[C@H](O)[C@@H](O)[C@H](O)[C@H](O)CO.CNC[C@H](O)[C@@H](O)[C@H](O)[C@H](O)CO.O=C(CCCCC(=O)Nc1c(I)cc(I)c(C(=O)O)c1I)Nc1c(I)cc(I)c(C(=O)O)c1I` [IODIPAMIDE MEGLUMINE] were “No-Dili-Concern” and 0.
In the case of `CNC(=O)c1c(I)c(NC(C)=O)c(I)c(C(=O)[O-])c1I.[Na+]` [IOTHALAMATE SODIUM], the DILI_Concern result in the data set listed under Homo sapiens [1] was “No-Dili-Concern”. The DILI_severity_class in the data set listed under Homo sapiens [2] was 0.
Taken in the same sequence, the figures for `O=C(NCC(O)CO)c1c(I)c(C(=O)NCC(O)CO)c(I)c(N(CCO)C(=O)CO)c1I` (configuration not stated) [IOVERSOL] were “No-Dili-Concern” and 0.
The corresponding values for `CC(C)NNC(=O)c1ccncc1` [IPRONIAZID] are “Most-Dili-Concern” and 8.
On to `CCCCC1=NC2(CCCC2)C(=O)N1Cc1ccc(-c2ccccc2-c2nnn[nH]2)cc1` [IRBESARTAN], for which the DILI_Concern result in the data set filed under Homo sapiens [1] is “Less-Dili-Concern”. Moreover, the DILI_severity_class in the data set filed under Homo sapiens [2] came to 5.
Taken in the same sequence, the figures for `CCc1c2c(nc3ccc(OC(=O)N4CCC(N5CCCCC5)CC4)cc13)-c1cc3c(c(=O)n1C2)COC(=O)[C@]3(O)CC` [IRINOTECAN] were “Less-Dili-Concern” and 3.
As for `CC(C)Nc1ncccn1` [ISAXONINE], the DILI_Concern entry in the data set listed under Homo sapiens [1] is “Most-Dili-Concern”. For the same compound, in the data set listed under Homo sapiens [2], the DILI_severity_class amounted to 8.
Taken in the same sequence, the figures for `Cc1cc(C(=O)NNCc2ccccc2)no1` [ISOCARBOXAZID] were “Ambiguous-Dili-Concern” and 5.
The corresponding values for `NNC(=O)c1ccncc1` [ISONIAZID] are “Most-Dili-Concern” and 8.
The corresponding values for `CC(C)NCC(O)c1ccc(O)c(O)c1` (configuration not stated) [ISOPROTERENOL] are “No-Dili-Concern” and 0.
With `O=[N+]([O-])O[C@H]1CO[C@H]2[C@@H]1OC[C@H]2O[N+](=O)[O-]` [ISOSORBIDE DINITRATE], the DILI_Concern result in the data set filed under Homo sapiens [1] is “No-Dili-Concern”. Also, the DILI_severity_class in the data set listed under Homo sapiens [2] was 0.
With `CC1=C(/C=C/C(C)=C/C=C/C(C)=C\C(=O)O)C(C)(C)CCC1` [ISOTRETINOIN], in the data set filed under Homo sapiens [1], the DILI_Concern entry was “Most-Dili-Concern”. In addition, the DILI_severity_class in the data set filed under Homo sapiens [2] is recorded as 5.
As for `CC(COc1ccccc1)NC(C)C(O)c1ccc(O)cc1` (configuration not stated) [ISOXSUPRINE], in the data set listed under Homo sapiens [1], the DILI_Concern entry was “No-Dili-Concern”. In the data set listed under Homo sapiens [2], the DILI_severity_class was 0.
As for `COC(=O)C1=C(C)NC(C)=C(C(=O)OC(C)C)C1c1cccc2nonc12` (configuration not stated) [ISRADIPINE], the DILI_Concern entry in the data set listed under Homo sapiens [1] is recorded as “Less-Dili-Concern”. The DILI_severity_class in the data set filed under Homo sapiens [2] was found to be 3.
As to `CCC(C)n1ncn(-c2ccc(N3CCN(c4ccc(OCC5COC(Cn6cncn6)(c6ccc(Cl)cc6Cl)O5)cc4)CC3)cc2)c1=O` (configuration not stated) [ITRACONAZOLE], the DILI_Concern result in the data set listed under Homo sapiens [1] is “Most-Dili-Concern”. In addition, the DILI_severity_class in the data set listed under Homo sapiens [2] turned out to be 8.
On to `C/C(=C\c1csc(C)n1)[C@@H]1C[C@@H]2O[C@]2(C)CCC[C@H](C)[C@H](O)[C@@H](C)C(=O)C(C)(C)[C@@H](O)CC(=O)N1` [IXABEPILONE], for which the DILI_Concern result in the data set listed under Homo sapiens [1] is recorded as “Ambiguous-Dili-Concern”. Also, the DILI_severity_class in the data set filed under Homo sapiens [2] stood at 7.
Taken in the same sequence, the figures for `CNC1(c2ccccc2Cl)CCCCC1=O` (configuration not stated) [KETAMINE] were “Less-Dili-Concern” and 0.
Taken in the same sequence, the figures for `CC(=O)N1CCN(c2ccc(OCC3COC(Cn4ccnc4)(c4ccc(Cl)cc4Cl)O3)cc2)CC1` (configuration not stated) [KETOCONAZOLE] were “Most-Dili-Concern” and 8.
The corresponding values for `CC(C(=O)O)c1cccc(C(=O)c2ccccc2)c1` (configuration not stated) [KETOPROFEN] are “Less-Dili-Concern” and 3.
`O=C(c1ccccc1)c1ccc2n1CCC2C(=O)O` (configuration not stated) [KETOROLAC]: the DILI_Concern entry in the data set filed under Homo sapiens [1] is “Less-Dili-Concern”. In addition, in the data set filed under Homo sapiens [2], the DILI_severity_class is 3.
The corresponding values for `CC(CCc1ccccc1)NCC(O)c1ccc(O)c(C(N)=O)c1` (configuration not stated) [LABETALOL] are “Most-Dili-Concern” and 8.
As to `COC[C@@H](NC(C)=O)C(=O)NCc1ccccc1` [LACOSAMIDE], in the data set filed under Homo sapiens [1], the DILI_Concern entry is listed as “Ambiguous-Dili-Concern”. For the same compound, the DILI_severity_class in the data set listed under Homo sapiens [2] is recorded as 3.
Take `OC[C@H]1O[C@@H](O[C@@H]2[C@@H](CO)O[C@](O)(CO)[C@H]2O)[C@H](O)[C@@H](O)[C@H]1O` [LACTULOSE]: the DILI_Concern result in the data set listed under Homo sapiens [1] is listed as “No-Dili-Concern”. Besides, the DILI_severity_class in the data set listed under Homo sapiens [2] came out at 0.
Taken in the same sequence, the figures for `Nc1ccn([C@@H]2CS[C@H](CO)O2)c(=O)n1` [LAMIVUDINE] were “Less-Dili-Concern” and 3.
Take `Nc1nnc(-c2cccc(Cl)c2Cl)c(N)n1` [LAMOTRIGINE]: the DILI_Concern result in the data set filed under Homo sapiens [1] is reported as “Most-Dili-Concern”. The DILI_severity_class in the data set listed under Homo sapiens [2] is on record as 7.
`CC(=O)O.CC(C)[C@@H]1NC(=O)[C@H](CCCCN)NC(=O)[C@@H](Cc2c[nH]c3ccccc23)NC(=O)[C@H](Cc2ccc(O)cc2)NC(=O)[C@@H](NC(=O)[C@H](N)Cc2ccc3ccccc3c2)CSSC[C@@H](C(=O)N[C@H](C(N)=O)[C@@H](C)O)NC1=O` [LANREOTIDE ACETATE]: in the data set filed under Homo sapiens [1], the DILI_Concern result is recorded as “Ambiguous-Dili-Concern”. Besides, the DILI_severity_class in the data set listed under Homo sapiens [2] is recorded as 2.
